Data: US8492378B2, “GSK-3β inhibitor” (Takeda Pharmaceutical Company Limited, priority 2006, dated 2013)

Assays:
Assay in all cases: Serine threonine kinase inhibitory activity ([γ-33P]ATP)
Assay type in all cases: biochemical
GSK-3β = GSK-3β (Homo sapiens, UniProt P49841); conditions: [γ-33P]ATP kinase panel; read-out: IC50 values against GSK-3β
Procedure: Inhibitory action on various purified proteins of serine, threonine kinases (p38α, JNK1, IKKβ, ASK1, TAK1, MEKK1, PKCθ, GSK-3β, PLK1, TTK, Aurora A, MEK1, MEK5, B-RAF, ERK1) was examined. As a reaction mixture, 37.5 μL of 25 mM HEPES (pH 7.5), 10 mM magnesium acetate, 1 mM DTT, each concentration of purified protein and a synthesis substrate were used. The mixture was reacted in the presence or absence of a test compound (2.5 μL/the reaction mixture) dissolved in DMSO at each concentration at room temperature for 5 min. […] After quenching the reaction, the amount of phosphorylated peptide was measured by Top-Count (Packard).

ASK1 = ASK1 (Homo sapiens, UniProt Q99683); conditions: read-out: 50% inhibitory activity against other kinases: ASK1
Procedure: (§1) Inhibitory action on various purified proteins of serine, threonine kinases (p38α, JNK1, IKKβ, ASK1, TAK1, MEKK1, PKCθ, GSK-3β, PLK1, TTK, Aurora A, MEK1, MEK5, B-RAF, ERK1) was examined. As a reaction mixture, 37.5 μL of 25 mM HEPES (pH 7.5), 10 mM magnesium acetate, 1 mM DTT, each concentration of purified protein and a synthesis substrate were used. The mixture was reacted in the presence or absence of a test compound (2.5 μL/the reaction mixture) dissolved in DMSO at each concentration at room temperature for 5 min. Further, 10 μL of a mixture of 2.5 μM ATP and 10 μCi/ml [γ-^33P]ATP (DAIICHI PURE CHEMICALS) was added and the mixture was reacted at room temperature for 30 min. After quenching the reaction, the amount of phosphorylated peptide was measured by Top-Count (Packard). The concentration of the test compound necessary for 50% inhibition (IC50 value) was calculated by PRISM 3.0 (GraphPad Software).

Aurora A = Aurora A (Homo sapiens, UniProt O14965); conditions: read-out: 50% inhibitory activity against other kinases: Aurora A
Aurora A, sequence (O14965 whole entry): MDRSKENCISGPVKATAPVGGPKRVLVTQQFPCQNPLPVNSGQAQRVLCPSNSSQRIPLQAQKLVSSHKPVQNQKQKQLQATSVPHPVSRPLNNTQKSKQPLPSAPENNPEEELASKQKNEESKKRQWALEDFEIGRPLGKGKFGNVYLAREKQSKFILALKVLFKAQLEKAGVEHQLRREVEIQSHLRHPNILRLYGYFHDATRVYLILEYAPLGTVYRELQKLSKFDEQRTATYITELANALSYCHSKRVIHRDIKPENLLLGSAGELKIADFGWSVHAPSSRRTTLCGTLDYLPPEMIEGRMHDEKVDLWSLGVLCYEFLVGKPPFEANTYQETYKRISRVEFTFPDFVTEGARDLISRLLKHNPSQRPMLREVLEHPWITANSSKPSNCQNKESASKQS
Procedure: as §1

B-RAF = B-RAF (Homo sapiens, UniProt P15056); conditions: read-out: 50% inhibitory activity against other kinases: B-RAF
Procedure: as §1

ERK1 = ERK1 (Homo sapiens, UniProt P27361); conditions: read-out: 50% inhibitory activity against other kinases: ERK1
Procedure: as §1

IKKβ = biological target: T1, IKKβ (Homo sapiens, UniProt O14920); conditions: read-out: 50% inhibitory activity against other kinases: IKKβ
T1 sequence (O14920 1-756): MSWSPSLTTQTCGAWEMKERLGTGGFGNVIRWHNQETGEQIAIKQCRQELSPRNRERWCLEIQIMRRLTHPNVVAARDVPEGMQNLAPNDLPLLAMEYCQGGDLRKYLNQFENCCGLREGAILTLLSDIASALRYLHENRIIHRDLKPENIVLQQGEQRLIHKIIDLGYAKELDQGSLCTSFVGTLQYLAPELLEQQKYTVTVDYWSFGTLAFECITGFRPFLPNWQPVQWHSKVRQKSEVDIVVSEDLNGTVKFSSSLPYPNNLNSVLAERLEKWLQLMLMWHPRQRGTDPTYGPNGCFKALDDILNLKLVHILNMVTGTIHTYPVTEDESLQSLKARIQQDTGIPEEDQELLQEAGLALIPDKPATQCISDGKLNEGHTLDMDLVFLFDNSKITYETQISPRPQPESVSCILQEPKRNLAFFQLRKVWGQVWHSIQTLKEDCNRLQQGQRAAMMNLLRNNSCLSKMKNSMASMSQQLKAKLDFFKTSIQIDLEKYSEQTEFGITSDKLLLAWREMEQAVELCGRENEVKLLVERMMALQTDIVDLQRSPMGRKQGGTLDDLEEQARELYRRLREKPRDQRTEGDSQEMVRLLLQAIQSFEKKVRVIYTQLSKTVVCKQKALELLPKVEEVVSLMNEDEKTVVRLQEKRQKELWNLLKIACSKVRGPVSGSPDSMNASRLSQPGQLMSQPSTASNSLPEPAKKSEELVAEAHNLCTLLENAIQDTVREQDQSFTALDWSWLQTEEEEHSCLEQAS
Procedure: as §1

JNK1 = JNK1 (Homo sapiens, UniProt P45983); conditions: read-out: 50% inhibitory activity against other kinases: JNK1
JNK1, sequence (P45983 whole entry): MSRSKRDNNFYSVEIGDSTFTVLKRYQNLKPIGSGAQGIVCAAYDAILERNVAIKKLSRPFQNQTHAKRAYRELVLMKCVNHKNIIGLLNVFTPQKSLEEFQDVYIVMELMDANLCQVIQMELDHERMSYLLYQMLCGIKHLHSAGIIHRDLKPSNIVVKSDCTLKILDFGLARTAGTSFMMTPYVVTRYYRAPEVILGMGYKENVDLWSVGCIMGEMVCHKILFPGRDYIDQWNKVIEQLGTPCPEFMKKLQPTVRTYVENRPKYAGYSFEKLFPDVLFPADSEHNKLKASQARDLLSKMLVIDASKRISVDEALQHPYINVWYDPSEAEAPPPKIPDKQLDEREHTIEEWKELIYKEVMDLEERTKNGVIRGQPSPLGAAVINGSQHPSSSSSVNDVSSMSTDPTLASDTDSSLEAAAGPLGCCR
Procedure: as §1

MEK1 = MEK1 (Homo sapiens, UniProt Q02750); conditions: read-out: 50% inhibitory activity against other kinases: MEK1
MEK1, sequence (Q02750 whole entry): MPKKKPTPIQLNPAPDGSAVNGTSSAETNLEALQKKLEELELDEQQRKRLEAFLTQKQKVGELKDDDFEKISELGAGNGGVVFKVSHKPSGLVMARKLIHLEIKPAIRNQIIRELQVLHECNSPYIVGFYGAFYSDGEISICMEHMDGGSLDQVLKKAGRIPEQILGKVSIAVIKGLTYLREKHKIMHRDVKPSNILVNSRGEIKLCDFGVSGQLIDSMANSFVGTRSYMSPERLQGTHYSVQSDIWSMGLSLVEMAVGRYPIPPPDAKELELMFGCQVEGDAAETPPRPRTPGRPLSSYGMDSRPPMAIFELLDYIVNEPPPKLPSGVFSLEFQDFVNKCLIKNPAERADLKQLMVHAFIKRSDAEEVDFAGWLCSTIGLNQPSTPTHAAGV
Procedure: as §1

MEK5 = MEK5 (Homo sapiens, UniProt Q13163); conditions: read-out: 50% inhibitory activity against other kinases: MEK5
Procedure: as §1

MEKK1 = MEKK1 (Homo sapiens, UniProt Q13233); conditions: read-out: 50% inhibitory activity against other kinases: MEKK1
MEKK1, sequence (Q13233 whole entry, species assumed): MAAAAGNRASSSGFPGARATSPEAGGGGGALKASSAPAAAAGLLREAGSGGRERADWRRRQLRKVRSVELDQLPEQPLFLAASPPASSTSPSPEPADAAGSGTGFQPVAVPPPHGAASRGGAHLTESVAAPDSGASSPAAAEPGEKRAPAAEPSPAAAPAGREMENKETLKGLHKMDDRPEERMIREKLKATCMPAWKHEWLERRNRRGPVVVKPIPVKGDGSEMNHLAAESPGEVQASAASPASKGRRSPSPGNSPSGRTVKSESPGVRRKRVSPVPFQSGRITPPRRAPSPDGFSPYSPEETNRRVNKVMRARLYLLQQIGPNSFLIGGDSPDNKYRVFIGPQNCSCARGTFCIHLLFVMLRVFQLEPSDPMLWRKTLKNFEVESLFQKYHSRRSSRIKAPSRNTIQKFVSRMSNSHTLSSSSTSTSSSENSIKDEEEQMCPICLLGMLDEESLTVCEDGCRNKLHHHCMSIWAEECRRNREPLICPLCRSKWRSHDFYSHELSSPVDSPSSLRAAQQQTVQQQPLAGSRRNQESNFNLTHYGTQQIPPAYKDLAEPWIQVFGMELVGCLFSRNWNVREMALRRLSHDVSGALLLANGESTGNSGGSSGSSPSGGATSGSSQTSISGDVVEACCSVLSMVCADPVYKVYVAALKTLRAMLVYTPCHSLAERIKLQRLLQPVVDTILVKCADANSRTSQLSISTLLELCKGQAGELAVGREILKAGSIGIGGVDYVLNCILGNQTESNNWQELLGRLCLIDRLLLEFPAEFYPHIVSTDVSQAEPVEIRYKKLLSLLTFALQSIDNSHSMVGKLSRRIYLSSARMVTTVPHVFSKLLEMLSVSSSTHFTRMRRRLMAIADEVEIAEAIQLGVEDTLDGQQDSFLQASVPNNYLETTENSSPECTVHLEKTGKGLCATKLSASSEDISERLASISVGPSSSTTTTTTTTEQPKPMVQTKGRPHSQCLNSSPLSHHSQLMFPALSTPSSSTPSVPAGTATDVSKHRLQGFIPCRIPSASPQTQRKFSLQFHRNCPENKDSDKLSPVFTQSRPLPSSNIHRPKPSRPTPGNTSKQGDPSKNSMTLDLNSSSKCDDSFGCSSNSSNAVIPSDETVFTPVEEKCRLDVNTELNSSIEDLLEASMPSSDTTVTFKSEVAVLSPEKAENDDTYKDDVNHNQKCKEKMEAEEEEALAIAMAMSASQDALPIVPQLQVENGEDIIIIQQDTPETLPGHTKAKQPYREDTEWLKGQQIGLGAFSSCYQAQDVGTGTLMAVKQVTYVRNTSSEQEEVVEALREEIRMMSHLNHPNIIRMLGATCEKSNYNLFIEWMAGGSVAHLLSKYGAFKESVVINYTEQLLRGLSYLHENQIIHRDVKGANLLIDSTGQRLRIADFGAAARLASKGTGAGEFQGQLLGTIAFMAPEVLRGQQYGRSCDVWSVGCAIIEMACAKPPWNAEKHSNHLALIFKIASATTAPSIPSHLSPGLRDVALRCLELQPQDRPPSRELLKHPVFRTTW
Procedure: as §1

PKCθ = PKCθ (Homo sapiens, UniProt Q04759); conditions: read-out: 50% inhibitory activity against other kinases: PKCθ
PKCθ, sequence (Q04759 whole entry): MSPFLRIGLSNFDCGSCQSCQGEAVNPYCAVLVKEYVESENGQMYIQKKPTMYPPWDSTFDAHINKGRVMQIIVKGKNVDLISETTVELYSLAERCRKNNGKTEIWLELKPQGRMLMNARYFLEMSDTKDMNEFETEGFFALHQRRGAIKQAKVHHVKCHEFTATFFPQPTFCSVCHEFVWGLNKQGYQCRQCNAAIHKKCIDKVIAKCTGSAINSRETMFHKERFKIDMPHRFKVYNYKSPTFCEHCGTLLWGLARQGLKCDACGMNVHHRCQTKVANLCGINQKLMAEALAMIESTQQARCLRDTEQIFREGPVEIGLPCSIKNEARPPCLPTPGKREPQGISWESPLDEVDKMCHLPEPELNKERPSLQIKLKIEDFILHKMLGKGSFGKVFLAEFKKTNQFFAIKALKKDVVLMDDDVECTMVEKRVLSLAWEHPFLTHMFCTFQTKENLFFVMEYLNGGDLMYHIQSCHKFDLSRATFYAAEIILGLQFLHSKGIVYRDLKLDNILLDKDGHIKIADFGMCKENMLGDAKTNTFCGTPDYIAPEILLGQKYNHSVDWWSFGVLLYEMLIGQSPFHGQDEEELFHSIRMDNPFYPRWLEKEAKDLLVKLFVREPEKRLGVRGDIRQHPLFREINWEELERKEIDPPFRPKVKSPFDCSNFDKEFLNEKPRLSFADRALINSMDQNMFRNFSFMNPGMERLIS
Procedure: as §1

PLK1 = PLK1 (Homo sapiens, UniProt P53350); conditions: read-out: 50% inhibitory activity against other kinases: PLK1
Procedure: as §1

TAK1 = TAK1 (Homo sapiens, UniProt O43318); conditions: read-out: 50% inhibitory activity against other kinases: TAK1
TAK1, sequence (O43318 whole entry): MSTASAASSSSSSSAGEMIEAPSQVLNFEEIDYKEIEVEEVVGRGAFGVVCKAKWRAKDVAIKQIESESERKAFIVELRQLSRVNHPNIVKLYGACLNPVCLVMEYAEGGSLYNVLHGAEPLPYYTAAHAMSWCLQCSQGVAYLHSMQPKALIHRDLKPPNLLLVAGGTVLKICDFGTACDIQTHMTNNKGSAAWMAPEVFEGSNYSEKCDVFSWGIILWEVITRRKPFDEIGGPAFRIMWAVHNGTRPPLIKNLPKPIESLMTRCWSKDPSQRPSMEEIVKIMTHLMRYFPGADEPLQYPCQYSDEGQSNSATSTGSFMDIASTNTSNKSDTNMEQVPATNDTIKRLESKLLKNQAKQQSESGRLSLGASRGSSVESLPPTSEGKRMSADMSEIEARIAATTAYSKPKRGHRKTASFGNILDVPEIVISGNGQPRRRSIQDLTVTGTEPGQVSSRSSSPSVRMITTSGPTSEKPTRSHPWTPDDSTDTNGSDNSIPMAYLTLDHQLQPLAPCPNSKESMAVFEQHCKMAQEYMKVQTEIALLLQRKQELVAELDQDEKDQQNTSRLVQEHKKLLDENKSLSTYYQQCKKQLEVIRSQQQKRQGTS
TAK1, sequence (Q15750 whole entry, further chain): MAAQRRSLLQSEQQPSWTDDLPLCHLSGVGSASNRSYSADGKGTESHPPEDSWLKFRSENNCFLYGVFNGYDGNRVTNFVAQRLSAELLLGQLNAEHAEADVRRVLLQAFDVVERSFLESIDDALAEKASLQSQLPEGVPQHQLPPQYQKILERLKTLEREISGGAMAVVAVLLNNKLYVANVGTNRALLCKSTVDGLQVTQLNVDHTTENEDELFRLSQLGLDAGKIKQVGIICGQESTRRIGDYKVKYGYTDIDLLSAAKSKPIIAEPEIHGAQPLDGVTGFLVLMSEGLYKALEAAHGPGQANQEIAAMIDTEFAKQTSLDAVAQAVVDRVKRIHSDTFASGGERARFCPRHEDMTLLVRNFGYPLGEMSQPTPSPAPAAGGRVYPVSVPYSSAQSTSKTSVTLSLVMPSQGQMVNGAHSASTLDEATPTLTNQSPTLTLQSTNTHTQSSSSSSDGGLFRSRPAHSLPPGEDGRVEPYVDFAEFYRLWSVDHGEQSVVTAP
Procedure: as §1

TTK = biological target: T2, TTK (Homo sapiens, UniProt P33981); conditions: read-out: 50% inhibitory activity against other kinases: TTK
T2 sequence (P33981 1-857): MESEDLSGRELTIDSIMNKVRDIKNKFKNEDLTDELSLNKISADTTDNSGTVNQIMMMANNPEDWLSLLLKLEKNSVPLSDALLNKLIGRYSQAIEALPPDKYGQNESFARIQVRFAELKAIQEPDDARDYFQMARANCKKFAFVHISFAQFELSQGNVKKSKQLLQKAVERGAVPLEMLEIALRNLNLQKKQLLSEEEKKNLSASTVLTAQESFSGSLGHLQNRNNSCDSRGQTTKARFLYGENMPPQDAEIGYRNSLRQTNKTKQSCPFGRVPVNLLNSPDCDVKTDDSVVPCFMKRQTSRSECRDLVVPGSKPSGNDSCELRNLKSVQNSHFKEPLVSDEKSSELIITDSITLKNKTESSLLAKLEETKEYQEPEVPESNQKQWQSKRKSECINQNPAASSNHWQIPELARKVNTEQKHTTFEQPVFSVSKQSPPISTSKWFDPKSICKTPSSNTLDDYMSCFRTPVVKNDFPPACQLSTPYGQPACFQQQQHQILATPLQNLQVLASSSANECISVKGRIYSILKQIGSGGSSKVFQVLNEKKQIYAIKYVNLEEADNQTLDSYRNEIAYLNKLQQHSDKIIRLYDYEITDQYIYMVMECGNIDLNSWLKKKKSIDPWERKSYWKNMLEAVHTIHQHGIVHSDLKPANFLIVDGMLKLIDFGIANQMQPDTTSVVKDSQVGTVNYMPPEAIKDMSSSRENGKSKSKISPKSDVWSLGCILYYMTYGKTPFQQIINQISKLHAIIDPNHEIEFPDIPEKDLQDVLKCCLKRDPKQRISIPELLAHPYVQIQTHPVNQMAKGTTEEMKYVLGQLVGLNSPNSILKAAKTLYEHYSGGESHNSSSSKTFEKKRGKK
Procedure: as §1

p38α = p38α (Homo sapiens, UniProt Q16539); conditions: read-out: 50% inhibitory activity against other kinases: p38α
p38α, sequence (Q16539 whole entry): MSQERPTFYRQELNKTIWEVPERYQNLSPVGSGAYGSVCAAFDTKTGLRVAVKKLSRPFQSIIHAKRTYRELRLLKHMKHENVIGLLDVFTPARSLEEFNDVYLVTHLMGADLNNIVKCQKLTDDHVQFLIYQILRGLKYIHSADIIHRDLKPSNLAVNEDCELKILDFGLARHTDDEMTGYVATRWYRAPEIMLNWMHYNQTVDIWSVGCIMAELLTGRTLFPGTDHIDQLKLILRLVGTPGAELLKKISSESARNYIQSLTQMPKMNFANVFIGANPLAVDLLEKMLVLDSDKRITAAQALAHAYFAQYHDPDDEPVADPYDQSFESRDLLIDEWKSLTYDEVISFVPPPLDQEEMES
Procedure: as §1

Row | SMILES | IC50 (GSK-3β) [nM] | IC50 (ASK1) [µM] | IC50 (Aurora A) [µM] | IC50 (B-RAF) [µM] | IC50 (ERK1) [µM] | IC50 (IKKβ) [µM] | IC50 (JNK1) [µM] | IC50 (MEK1) [µM] | IC50 (MEK5) [µM] | IC50 (MEKK1) [µM] | IC50 (PKCθ) [µM] | IC50 (PLK1) [µM] | IC50 (TAK1) [µM] | IC50 (TTK) [µM] | IC50 (p38α) [µM]
1 | COc1ccc(-c2coc3ccc(-c4nnc(SC)o4)cc23)cc1 [Example 165, 2-[3-(4-methoxyphenyl)-1-benzofuran-5-yl]-5-(methylthio)-1,3,4-oxadiazole] | 190 | > 10 | > 10 | > 10 | > 10 | > 10 | > 10 | > 10 | > 10 | > 10 | > 10 | > 10 | > 10 | > 10 | > 10
2 | COc1ccc(CSc2nnc(-c3ccnc(N)c3)o2)cc1F [Example 209, 4-[5-[(3-fluoro-4-methoxybenzyl)thio]-1,3,4-oxadiazol-2-yl]pyridin-2-amine] | 140 | > 10 | > 10 | > 10 | > 10 | > 10 | > 10 | > 10 | > 10 | > 10 | > 10 | > 10 | > 10 | > 10 | > 10
3 | COc1ccc(CSc2nnc(-c3ccc4c(c3)OCO4)o2)cc1F [Reference Example 71, 2-(1,3-benzodioxol-5-yl)-5-[(3-fluoro-4-methoxybenzyl)thio]-1,3,4-oxadiazole, reference compound] | – | > 10 | > 10 | > 10 | > 10 | > 10 | > 10 | > 10 | > 10 | > 10 | > 10 | > 10 | > 10 | > 10 | > 10
